# Measured values taken from US8669250B2, “Derivatives of aryl-{4-halogeno-4-[aminomethyl]-piperidin-1-yl}-methanone, their method of preparation and their use as medicinal products” (Pierre Fabre Medicament, priority 2009, dated 2014).
# Entries after “also recorded” stand apart in the source; their conditions may differ.
# Experiments:
# [1] = test system: rats, formol-induced pain; assay: Formol test (analgesic activity, physiological pain); assay type: in vivo; conditions: rat, i.p.
# Excerpt: (§1) The physiological pain model chosen by the inventors to determine the analgesic activity of the compounds of the invention uses excess nociceptive stimuli (injection of formol) to cause a painful sensation in animal (Eur. J. Pharmacol. 2001, 421, 109). For the so-called pathological pain model in animal, the inventors chose to use pain induced by the injection of a cytotoxic agent such as oxaliplatine (Eur. J. Cancer 2007, 2658).
# The rats (Male Sprague Dawley rats (ICO: OFA SD [IOPS], Iffa Credo, France) are placed in plexiglass observation boxes above an angled mirror so as to facilitate observation of the hind paws. After thirty minutes of habituation, the animals are given an injection of formol diluted to 2.5% on the plantar surface of the right hind paw. The injection of formol produces behavioural responses which occur in two phases:
# an acute phase, from 0 to 5 min after injection of the formol, corresponding to stimulation of receptors specialized in the transmission of pain messages to the spinal cord.
# a late phase which occurs 20 to 30 min after the injection. This phase corresponds to stimulation of receptors by inflammatory mediators and/or to hyper-excitability of the dorsal horn induced during the first phase. This late phase therefore involves central sensitization.
# For the study of the compounds of the invention we selected two expressions of painful behaviour and chose two periods of observation which correspond to the two pain phases (i.e. 0-5 min and 22.5-27.5 min). During these two 5-min periods the animals are observed every 30 seconds and are given scores for the following behaviours: paw licking or not of the injected paw, and lifting or non-lifting of the injected paw. Ten observations give a maximum score of 10 for each parameter for each of the 2 phases. The products of the invention are administered via intraperitoneal route 15 min before the injection of formol.
# (§2) Quantification of the effect of the compounds of the invention on the forced swimming tests and on the formol test is conducted by one-factor variance analysis between groups (ANOVA analysis) followed by a multiple comparison test (Dunnett's test) versus control animals. The ED50 value is calculated using Litchfield and Wilcoxon analysis from the percentage of responding animals.
# For this test, the animals are observed every 30 seconds during two periods of 5 min. The following behaviours are noted: paw licking or not of the injected paw, and paw lifting or not of the injected paw. Ten observations give a maximum score of 10 for each parameter for each of the 2 phases, measuring either paw lifting or paw licking. This test was also performed by comparison with administration of the vehicle (veh) alone.
# 5-HT1A receptor = target: T1, 5-HT1A receptor (Rattus norvegicus, UniProt P19327); assay: Affinity for 5-HT1A receptors, shift of (3H)8-OH-DPAT in rat cerebral cortex; assay type: binding; conditions: mean of at least 3 experiments, read-out: 5-HT1A affinity (pKi) (converted)
# T1 construct: the cerebral cortex is sampled and homogenized in 20 volumes of buffer; from tissue; host or cells: rat cerebral cortex homogenate (membranes)
# T1 sequence (P19327 1-422): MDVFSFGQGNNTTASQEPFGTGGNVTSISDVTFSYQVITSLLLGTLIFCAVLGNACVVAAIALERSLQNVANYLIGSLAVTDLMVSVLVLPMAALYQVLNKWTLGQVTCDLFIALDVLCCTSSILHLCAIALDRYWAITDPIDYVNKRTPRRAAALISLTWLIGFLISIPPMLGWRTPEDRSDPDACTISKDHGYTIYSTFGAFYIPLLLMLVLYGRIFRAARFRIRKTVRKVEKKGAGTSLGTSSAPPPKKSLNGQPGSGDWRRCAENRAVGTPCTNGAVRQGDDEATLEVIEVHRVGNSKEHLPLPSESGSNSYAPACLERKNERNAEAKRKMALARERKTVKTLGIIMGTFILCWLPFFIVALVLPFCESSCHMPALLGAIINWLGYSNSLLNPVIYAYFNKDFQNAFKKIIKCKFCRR
# Method: (§3) The affinity of the compounds of the invention for the rat 5-HT1A receptor was measured conventionally from competitive experiments with a radiolabelled 5-HT1A agonist. […] This test is widely used since it is predictive of antidepressant action in man. Analgesic activity was determined after intra-peritoneal administration to rats, both with a physiological pain model and a pathological pain model. By physiological pain, the inventors designate pain whose origin is a lesion and/or organic ill-function such as pain caused by excessive nociceptive stimuli.
# The in vitro affinity of the compounds of the invention for the 5-HT1A receptors was determined by measuring the shift of (^3H)8-OH-DPAT (agonist of 5HT1A receptors labelled with tritium, TRK 850; 160-240 Ci/mmole).
# The study on binding with the 5-HT1A receptor was conducted as described in Naunyn-Schmiedeberg's Arch. Pharmaco. 1991, 343, 106. For these experiments, rat cerebral cortices were used. After unfreezing the brain in Tris-HCl buffer 50 mmol, pH=7.40 at 25° C., the cerebral cortex is sampled and homogenized in 20 volumes of buffer held at 4° C. The homogenate is centrifuged at 39000 g for 10 min, the centrifuge residue is suspended in the same volume of buffer and again centrifuged. After further suspension under the same conditions, the homogenate is incubated for 10 min at 37° C. then again centrifuged. The final residue is suspended in cold reaction buffer Tris-HCl 50 mmol, pH=7.40 at 25° C. containing […] of pargyline, 4 mmol of CaCl2 and 0.10% ascorbic acid. The final concentration of the tissue in the incubation medium is 10 mg/tube.
# The reaction tubes contain 0.10 mL of (^3H)8-OH-DPAT (final […]), 0.10 mL of product to be tested 6-7 concentrations and 0.80 mL of tissue. Non-specific binding is defined using […] of 5-HT. The reaction tubes are incubated at 23° C. for 30 min then their content is rapidly vacuum filtered through Whatman GF/B filters, the tubes are rinsed with 2×5 mL of Tris-HCl buffer 50 mmol, pH=7.4 at 25° C. Radioactivity is collected on the filter and analyzed by liquid scintillation by adding 4 mL of scintillating liquid (Emulsifier Safe, Packard). All experiments were performed in triplicate.
# The inhibition constants (Ki) of the products of the invention are estimated from shift experiments using the non-linear regression programme RADLIG version 4 by EBDA (Equilibrium Binding Data Analysis Biosoft, Cambridge, UK, Mc Pherson, 1985). The dissociation constant of the radioactive ligand used for calculations is […] for (^3H)8-OH-DPAT. The values of pKi (−log Ki) are given in the form mean±SEM of at least 3 experiments.
# [2] = test system: rats, oxaliplatine-induced allodynia; assay: Oxaliplatine test, von Frey (analgesic activity, pathological pain); assay type: in vivo; conditions: rat, i.p.
# Excerpt: as §1
# The rats (Male Sprague Dawley rats (ICO: OFA SD [IOPS], Iffa Credo, France) are tested a first time on the Friday to determine their mechanical sensitivity threshold (von Frey test). They are then given an intra-peritoneal injection (i.p.) of oxaliplatine (anticancer treatment causing neuropathic pain in patients) at a dose of 8 mg/kg. This dose in rat induces neuropathy which translates as mechanical hypersensitivity (allodynia) which develops 3 days after the injection with a peak on day five. For the study of the compounds of the invention, the animals are re-tested on day five, 15 min after administration of the compound via intra-peritoneal route.
# The pressure force is then measured (in g) at which withdrawal of the paw of the animals is observed.
# [3] = test system: rats, forced swimming immobility; assay: Forced swimming test (antidepressant activity); assay type: in vivo; conditions: rat, oral
# Method: as §3
# The rats (Male Sprague Dawley rats (ICO: OFA SD [IOPS], Iffa Credo, France), are placed in a cylinder (45 cm high and 20 cm in diameter) filled with water at 25° C.±0.5 up to a height of 17 cm. This depth allows rats to swim or float without their tail touching the bottom of the cylinder.
# 24 h before the test day, the rats are placed in the cylinder for 15 min, a lapse of time after which they no longer attempt to escape and remain immobile. On the test day the animals are replaced in the cylinder and the duration of animal immobility is measured by direct observation followed by verification of an audiovisual recording for 5 min. The products of the invention are administered by oral route 60 min before the test. A rat is considered to be immobile if it allows itself to float and only makes small movements to remain on the surface. Two rats are observed at the same time.
# as §2
smiles,measurement,setting,value
"O=C(c1ccc(F)c(Cl)c1)N1CCC(F)(CNCC2CNc3ccccc3O2)CC1 (single isomer, unassigned; (-)) [Compound 1a1, (−)-(3-Chloro-4-fluoro-phenyl)-{4-fluoro-4-[(3,4-dihydro-2H-1,4-benzoxazine-2-methanamino)-methyl]-pipéridin-1-yl}-methanone]",ED50,"[1]; ip, 15 min before formol, read-out: ED50, inhibition of paw lifting",0.05 mg/kg
same,"effect on paw lifting and paw licking, in words",[1]; acute and late phases,dose-dependent inhibition of the 2 measured parameters; also recorded: Full analgesia is obtained irrespective of the pain phase
same,Ki,5-HT1A receptor,1.02 nM
same,dose on and after which full analgesia is obtained,"[2]; day five after oxaliplatine, von Frey",≥ 0.04 mg/kg
same,"effect on allodynia, in words",[2]; dose range,dose-dependent inhibition of allodynia
same,dose on and after which none of the animals remains immobile,[3],≥ 10 mg/kg
same,ED50,"[3]; 60 min before test, read-out: ED50, reduction of immobility time",0.08 mg/kg
same,effect on animal immobility time,[3]; dose range,reducing the animal's immobility time in dose-dependent fashion
